According to patent US5591752A, “Quinoline derivative” (Ube Industries, Ltd., priority 1993, dated 1997):
Read-outs that look alike come from different tables or passages of the source.

What was measured:
[1] = target: T1, Leukotriene D4 (LTD4) receptor (Cavia porcellus, UniProt Q2NNR5); assay: Leukotriene D4 receptor binding test ([3H]ICI-198615 displacement, lung cell membrane fractions); conditions: guinea pig lung membranes, [3H]ICI-198615 about 0.2 nM, pKi=-log Ki
T1 construct: lung cell membrane fractions of guinea pigs were used; from tissue; host or cells: lung membrane fractions of Hartley strain male guinea pigs
T1 sequence (Q2NNR5 1-340): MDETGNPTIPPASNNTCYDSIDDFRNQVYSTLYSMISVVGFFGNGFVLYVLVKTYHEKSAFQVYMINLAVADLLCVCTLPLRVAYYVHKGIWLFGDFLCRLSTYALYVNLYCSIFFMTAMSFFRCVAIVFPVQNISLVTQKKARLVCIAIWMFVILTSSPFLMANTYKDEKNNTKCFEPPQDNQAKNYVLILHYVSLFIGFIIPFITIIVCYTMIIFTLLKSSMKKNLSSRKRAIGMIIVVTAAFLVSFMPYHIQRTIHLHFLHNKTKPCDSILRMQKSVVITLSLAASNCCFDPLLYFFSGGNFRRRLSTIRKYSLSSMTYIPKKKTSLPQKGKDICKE
Procedure: Leukotriene D4 receptor binding test
<Preparation of receptor samples>
As receptor samples, lung cell membrane fractions of guinea pigs were used. The membrane fractions were prepared according to the method of Ahn et al. (Ahn, H. S. & Barnett, A. (1986) Eur. J. Pharmacol., 127, 153.). After Hartley strain male guinea pigs (body weight: 400 to 500 g, supplied by Nihon SLC Co.) were killed by exsanguination, lungs were extracted and perfused with a physiological saline solution (Otsuka Seiyaku) from lung arteries. The extracted lungs were cut into pieces immediately or after the lungs were stored by freezing them at -80 ° C. A 10-fold amount of a buffer solution (pH 7.4) of 10 mM PIPES, 10 mM MgCl2, 10 mM CaCl2 and 50 mM NaCl was added thereto and the mixtures were made suspensions by a homogenizer (manufactured by Yamato Co., LP-41C Model). After the suspensions were filtered with gauze, the filtrates were centrifuged by an ultracentrifuge (manufactured by Hitachi Co., 70P-72 Model) with 50,000 g for 10 minutes, whereby membrane fractions were deposited. The membrane fractions were washed twice and then suspended in the same buffer solution to obtain receptor samples. Measurement of a protein concentration was conducted by the Lowry method (Lowry, O, H. et al. (1951) J. Biol. Chem., 193,265.) by using bovine serum albumin as a standard protein. The samples prepared (protein amount: 10 to 25 mg/ml) were stored by freezing them at -80° C. and used for experiments.
<Leukotriene D4 receptor binding test>
The leukotriene D4 (LTD4) receptor binding test was conducted according to the method of O'Sullivan et al. (O'Sullivan, B. P. & Mong, S. (1989) Mol. Pharmacol., 35, 795.). The receptor samples were diluted with a buffer solution (pH 7.4) of 10 mM PIPES, 10 mM MgCl2, 10 mM CaCl2 and 50 mM NaCl and 0.42 mg/ml in terms of a protein amount was used. As a labeling compound, [^3 H]ICI-198615 (produced by Du Pont Co., 60 Ci/mmol) which specifically binds to the LTD4 receptor was used. [^3 H]ICI-198615 and a compound to be tested were dissolved in dimethylsulfoxide and a 1/50 amount (2% by volume) of the solution was added to the receptor-diluted solutions, respectively. 500 μl of each reaction mixture was incubated at 25° C. for 40 minutes and then filtered with a glass fiber filter (Whatman, GF/B type) by using a cell harvester (manufactured by Brandel Co., M-30R Model). The filters were washed with 10 ml of an ice-cooled 100 mM NaCl-50 mM phosphate buffer solution (pH 7.5) and subjected to ultrasonic treatment in 9 ml of a liquid scintillator (manufactured by Nacalai Tesque, Co., Clear sol I) for 2 minutes. Thereafter, radioactivity was measured by a liquid scintillation counter (manufactured by Packard Co., 2000 CA Model). In a test of determining a dissociation constant of ICI-198615, 0.1 to 2 nM [^3 H]ICI-198615 and 10 μM non-radioactive ICI-198615 were used. In a test of determining inhibition constants of the respective compounds to be tested, [^3 H]ICI-198615 having a concentration of about 0.2 nM and the compounds each having a concentration of 0.1 pM to 0.1 mM were used.
<Data analysis of receptor binding test>
The dissociation constant (Kd) of ICI-198615 and the binding inhibition constants (Ki) of the respective compounds to be tested were determined by the following numerical formulae (A), (B) and (C).
wherein B: a concentration of a label [3H] which is bound to a receptor, Bmax: a maximum receptor-binding concentration of a label [^3 H], F: a concentration of a label [^3 H] which is not bound to a receptor, [L]: a concentration of a label [^3 H], IC50 : a concentration of a compound which inhibits 50% of binding of a label [^3 H] to a receptor and pKi: a logarithm, of a reciprocal of Ki.

[2] = system: Leukotriene D4-induced respiratory contraction; assay: Leukotriene D4-induced respiratory contraction test (Konzett and Rossler method); assay type: in vivo, guinea pig; conditions: Cavia porcellus, po, LTD4 0.5 μg/kg i.v. 1 hour later, anesthetized Hartley guinea pigs, read-out: Inhibition ratio
Procedure: Leukotriene D4 -induced respiratory contraction test
Hartley strain male guinea pigs (body weight: 400 to 600 g, supplied by Nihon SLC Co.) were used and all of them were bred under conditions of constant temperature (23°±2° C.) and constant humidity ([…]). The animals which had been fasted for 24 hours before experiments were used.
LTD4 (Funakoshi) dissolved in a physiological saline solution (Otsuka Seiyaku) was used. The compounds to be tested suspended in a 0.5% carboxymethyl cellulose aqueous solution were used.
The operation was conducted according to the method of Konzett and Rossler (Konzett, H. and Rossler, R. Naunyn Schmiedebergs (1940) Arch. Exp. Pathol. Pharmacol., 195, 71.). Each guinea pig was anesthetized with urethane (1.5 g/kg, i.p.) and then fixed in the supine position. A trachea was incised and a .phi. type cannula was inserted into the trachea and connected to a respirator (Shinano Seisakusho, SN-480-7) for small animals. Artificial respiration with positive pressure was conducted with a pressure loaded to a lung of 10 cm H2 O, an air supplying rate of 5 ml/stroke and 60 strokes/min. The air supplying rate to the trachea was measured by differential pressure transducers (Nihon Koden, TU-241T and TP-602T) connected to the cannula in the trachea and recorded on a rectigraph (Nihon Koden, WT-645G Model).
LTD4 (0.5 μg/kg/0.5 ml) was administered intravenously (i.v.) from a cannula inserted into a common jugular vein to cause shrinkage of a trachea. Subsequently, a compound to be tested was administered orally (p.o.) after 10 minutes and LTD4 was administered intravenously (i.v.) again after 1 hour to cause shrinkage of the trachea. The results are shown by using a ratio of inhibiting a trachea-shrinking reaction before administering the compound to be tested.

[3] = read-out: pKi value (converted)

| Ki [1, 3] [nM] | Compound | Ki ([1]; pKi value) [nM] | inhibition in vivo at 1 mg/kg [2] [%] |
| --- | --- | --- | --- |
|  | O=C(O)CCSC1c2ccccc2COc2ccc(OCc3ccc4cc(F)c(Cl)cc4n3)cc21 (single isomer, unassigned; (+)) [Example 50, (+)-11-(2-Carboxyethylthio)-2-(7-chloro-6-fluoroquinolin-2-yl)methoxy-6,11-dihydrodibenz[b,e]oxepine] | 0.0794 | 100 |
| 6.31 | c1ccc(Cc2nnn[nH]2)c(COc2ccc(OCc3ccc4ccccc4n3)cc2)c1 [Compound A, 5-[[2-[[4-(2-quinolinylmethoxy)phenoxy]methyl]phenyl]methyl]-1H-tetrazole, reference compound] |  | 51 |
|  | O=C(O)CCSC1c2ccccc2COc2ccc(OCc3ccc4cc(F)c(Cl)cc4n3)cc21 (centres unmarked) [Example 1, 11-(2-Carboxyethylthio)-2-(7-chloro-6-fluoroquinolin-2-yl)methoxy-6,11-dihydrodibenz[b,e]oxepine] |  | 100 |
|  | O=C(O)CCSC1c2ccccc2COc2ccc(OCc3ccc4ccc(Cl)cc4n3)cc21 (centres unmarked) [Example 2, 11-(2-Carboxyethylthio)-2-(7-chloroquinolin-2-yl)methoxy-6,11-dihydrodibenz[b,e]oxepine] | 0.794 | 100 |
|  | O=C(O)CCSC1c2ccccc2COc2ccc(OCc3ccc4cc(F)ccc4n3)cc21 (centres unmarked) [Example 3, 11-(2-Carboxyethylthio)-2-(6-fluoroquinolin-2-yl)methoxy-6,11-dihydrodibenz[b,e]oxepine] | 3.16 | 100 |
|  | O=C(O)CCSC1c2ccccc2COc2ccc(OCc3ccc4ccc(F)cc4n3)cc21 (centres unmarked) [Example 4, 11-(2-Carboxyethylthio)-2-(7-fluoroquinolin-2-yl)methoxy-6,11-dihydrodibenz[b,e]oxepine] | 1.58 | 93 |
|  | COc1ccc2c(c1)COc1ccc(OCc3ccc4ccc(Cl)cc4n3)cc1C2SCCC(=O)O (centres unmarked) [Example 13, 11-(2-Carboxyethylthio)-2-(7-chloroquinolin-2-yl)methoxy-8-methoxy-6,11-dihydrodibenz[b,e]oxepine] | 0.794 | 67 |
|  | O=C(O)CSC1c2ccccc2COc2ccc(OCc3ccc4ccc(Cl)cc4n3)cc21 (centres unmarked) [Example 21, 11-Carboxymethylthio-2-(7-chloroquinolin-2-yl)methoxy-6,11-dihydrodibenz[b,e]oxepine] | 0.794 | 71 |
| 1.58 | O=C(O)COC1c2ccccc2COc2ccc(OCc3ccc4cc(Cl)ccc4n3)cc21 (centres unmarked) [Example 26, 11-Carboxymethoxy-2-(6-Chloroquinolin-2-yl)methoxy-6,11-dihydrodibenz[b,e]oxepine] |  | 87 |
